This passage reports IC50 and MIC results from US8389514B2, “Cyanoaminoquinolones and tetrazoloaminoquinolones as GSK-3 inhibitors” (Kyorin Pharmaceutical Co., Ltd., priority 2007, dated 2013).

In assay [1] the target is T1, recombinant full-length human GSK3β (Homo sapiens, UniProt P49841).
T1 construct: recombinant full-length human GSK3β (Upstate); purchased Upstate
The assay can be described thus: GSK3β enzyme cell free luciferase-coupled kinase assay. The format is biochemical. The conditions noted are these: 5 μM ATP. The method, then: All coupled-luciferase assays are performed by using a brief incubation with firefly luciferase (Promega) after completion of the kinase assay. KinaseGlo Plus is used for reading kinase reactions with ATP>10 μM, KinaseGlo for ATP<10 μM. The assay volume in a 384-well plate for the kinase reaction is 30 microliters.
10-25 ng of recombinant full-length human GSK3β (Upstate) is incubated in the presence or absence of compound at varying concentrations for 1 hour at 30 degrees Celsius in 20 mM MOPS, pH 7.0, 10 mM magnesium acetate, 0.2 mM EDTA, 2 mM EGTA, 30 mM magnesium chloride, 62.5 μM phospho-glycogen synthase peptide-2, 5 μM ATP, 10 mM β-glycerol phosphate, 1 mM sodium orthovanadate and 1 mM dithiothreitol. Proceed to KinaseGlo luciferase reaction (see below).
Following the completion of the kinase reaction an equal volume of KinaseGlo or KinaseGlo Plus luciferase reagent (Promega) is added and the luminescence read using a luminescence plate reader within 5-10 minutes. Compound activity is expressed as % inhibition relative to maximal inhibition observed at the maximal dose and IC50 values then calculated using curve fitting software (GraphPad Prizm).

Assay [2] concerns E. coli, ATCC8739. The assay can be described thus: Antibacterial activity (MIC), E. coli. Format: cell-based. As to conditions: Escherichia coli. An excerpt:
(§1) As used herein, a minimum inhibitory concentration (MIC) for bacterial growth assay is the lowest level of a compound needed to cause an inhibition to bacterial growth in culture medium. In certain embodiments, the antibacterial activity of compounds herein, measured as MIC.
(§2) In certain embodiments, GSK3 inhibitors provided herein are substantially free of antibacterial activity or having very low antibacterial activity. The antibacterial activity can be measured by methods known in the art by estimating a minimum inhibitory concentration (MIC) for test compounds. A MIC is the lowest level of a compound needed to cause an inhibition to bacterial growth in a culture medium. […] (Clinical and Laboratory Standards Institute. Methods for Dilution Antimicrobial Susceptibility Tests for Bacteria That Grow Aerobically; Approved Standard-Sixth Edition: CLSI document […]. CLSI, Wayne, Pa. (2003))
(§3) Antibacterial activity for E. coli, ATCC8739 and S. aures Smith is expressed as MIC (μM).

Assay [3] deals with S. aureus Smith. Kind of assay: Antibacterial activity (MIC), S. aureus Smith. The format is cell-based. As to conditions: Staphylococcus aureus.
Description: as §1, §2, §3

The structures appear in SMILES notation. Where only a bound is given, the exact number is not on record here.

T1 sequence (P49841 whole entry): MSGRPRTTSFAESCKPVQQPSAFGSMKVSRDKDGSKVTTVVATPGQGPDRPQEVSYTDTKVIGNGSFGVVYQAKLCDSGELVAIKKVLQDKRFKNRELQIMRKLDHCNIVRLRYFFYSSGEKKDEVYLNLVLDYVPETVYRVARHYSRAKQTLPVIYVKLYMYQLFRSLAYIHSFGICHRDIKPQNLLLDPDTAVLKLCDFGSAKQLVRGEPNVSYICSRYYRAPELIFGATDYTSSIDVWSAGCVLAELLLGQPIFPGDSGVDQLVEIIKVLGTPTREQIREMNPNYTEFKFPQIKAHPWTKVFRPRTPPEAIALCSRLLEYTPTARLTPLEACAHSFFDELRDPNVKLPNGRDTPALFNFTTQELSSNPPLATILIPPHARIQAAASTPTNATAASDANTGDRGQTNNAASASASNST

As a reminder, the IC50 is the concentration that gives 50% inhibition. In the case of `CCN(CCCNc1c(F)c(N)c2c(=O)c(-c3nnn[nH]3)cn3c2c1OC[C@@H]3C)c1ccccc1`, the half-maximal inhibitory concentration (IC50) in assay [1] is 10 to 100 nM.

Regarding `C[C@H]1COc2c(NCCCc3ccccn3)c(F)c(N)c3c(=O)c(-c4nnn[nH]4)cn1c23`, the IC50 in assay [1] was under 10 nM.

Usually MIC stands for the least concentration at which growth counts as inhibited. Low readings indicate a more susceptible organism, high ones a less susceptible organism. Regarding `C[C@H]1COc2c(NCCCn3ccnc3)c(F)c(N)c3c(=O)c(-c4nnn[nH]4)cn1c23`, the minimum inhibitory concentration (MIC) in assay [2] and in assay [3] was over 257 µM throughout. For the same compound, in assay [1], the IC50 lay within 10 to 100 nM.
